# Columns and labels:
# dopamine transporter [1] = target: T1, dopamine transporter (Rattus norvegicus, UniProt P23977); test: [3H]DA uptake (re-uptake inhibition at the dopamine transporter); assay type: biochemical; details: for Ki: Ki ± SE, Krebs-Ringer-HEPES buffer; for higher activity / selectivity at the DAT over the 5-HTT: reuptake inhibition, DAT over 5-HTT
# T1 construct: from tissue
# Method: (§1) Various isomeric forms of front-bridged Compounds 4, 5, 29, 30, 31, 40 and 50a and back-bridged Compounds 41, 42a, 42b, 49a and 50a were assayed for binding at the dopamine transporter and for inhibition of monamine re-uptake at the dopamine, serotonin and norepinephrine transporters. Mazindol binding were measured as previously described in Johnson et. al., 1992, Eur. J. Pharmacol., Mol. Pharmacol. Sect., 227:411-415. Reuptake inhibition was measured essentially as described in Yi et. al., 1991, Neuropharmacol. 29:475-486, except that an identical Krebs-Ringer-HEPES buffer was used for binding and all uptake assays (Slusher et al., 1997, Drug Alcohol Depend. 48:43-50).
# dopamine transporter [2] = target: T1, dopamine transporter; test: [3H]Mazindol binding at the dopamine transporter; details: for Ki: Ki ± SE, Krebs-Ringer-HEPES buffer
# Method: as §1
# [3] = target: T2, norepinephrine transporter (Rattus norvegicus, UniProt Q63380); test: [3H]NE uptake (re-uptake inhibition at the norepinephrine transporter); assay type: biochemical; details: Ki ± SE; Krebs-Ringer-HEPES buffer
# T2 construct: from tissue
# Method: as §1
# serotonin transporter = target: T3, serotonin transporter (Rattus norvegicus, UniProt P31652); test: [3H]5-HT uptake (re-uptake inhibition at the serotonin transporter); assay type: biochemical; details: for Ki: Ki ± SE, Krebs-Ringer-HEPES buffer; for 5-HT/DA (ratio of uptake Ki): ratio of 5-HT uptake Ki to DA uptake Ki
# T3 construct: from tissue
# Method: as §1
# [4] = Preskorn, 1994; cited from earlier work
# [5] = system: serotonin and norepinephrine re-uptake; details: in words; cited from earlier work
# T1 sequence (P23977 whole entry): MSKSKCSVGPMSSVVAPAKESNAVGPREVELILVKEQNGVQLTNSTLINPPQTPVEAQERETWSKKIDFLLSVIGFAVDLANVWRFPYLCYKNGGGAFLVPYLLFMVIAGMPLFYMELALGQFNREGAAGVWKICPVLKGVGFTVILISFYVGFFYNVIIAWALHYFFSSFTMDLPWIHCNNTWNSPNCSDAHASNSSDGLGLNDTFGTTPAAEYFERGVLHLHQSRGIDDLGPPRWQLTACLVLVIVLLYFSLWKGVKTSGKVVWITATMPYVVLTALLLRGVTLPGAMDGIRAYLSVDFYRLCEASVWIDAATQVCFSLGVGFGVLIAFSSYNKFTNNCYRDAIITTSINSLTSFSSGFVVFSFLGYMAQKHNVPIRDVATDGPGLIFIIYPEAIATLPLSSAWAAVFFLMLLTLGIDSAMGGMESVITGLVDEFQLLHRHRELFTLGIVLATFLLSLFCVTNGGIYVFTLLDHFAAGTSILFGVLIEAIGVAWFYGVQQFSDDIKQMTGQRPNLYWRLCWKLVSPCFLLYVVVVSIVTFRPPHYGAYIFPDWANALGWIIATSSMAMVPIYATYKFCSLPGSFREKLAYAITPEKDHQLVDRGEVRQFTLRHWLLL
# T3 sequence (P31652 whole entry): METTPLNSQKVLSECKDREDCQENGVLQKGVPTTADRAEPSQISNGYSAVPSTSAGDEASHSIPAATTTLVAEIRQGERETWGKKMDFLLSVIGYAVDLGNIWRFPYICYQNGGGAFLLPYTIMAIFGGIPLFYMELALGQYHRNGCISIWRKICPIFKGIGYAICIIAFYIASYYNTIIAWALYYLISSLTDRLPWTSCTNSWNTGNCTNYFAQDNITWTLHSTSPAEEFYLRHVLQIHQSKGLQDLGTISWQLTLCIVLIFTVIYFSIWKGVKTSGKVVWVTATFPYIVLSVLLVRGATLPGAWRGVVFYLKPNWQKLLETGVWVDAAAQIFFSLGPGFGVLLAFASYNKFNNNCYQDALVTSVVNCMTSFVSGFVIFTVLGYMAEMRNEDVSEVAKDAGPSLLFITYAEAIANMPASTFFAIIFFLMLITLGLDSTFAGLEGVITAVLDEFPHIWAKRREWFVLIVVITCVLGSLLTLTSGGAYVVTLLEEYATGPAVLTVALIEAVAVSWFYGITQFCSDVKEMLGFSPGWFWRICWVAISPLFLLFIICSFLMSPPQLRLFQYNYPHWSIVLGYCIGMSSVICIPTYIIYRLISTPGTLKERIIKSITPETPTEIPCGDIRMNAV
# T2 sequence (Q63380 1-617): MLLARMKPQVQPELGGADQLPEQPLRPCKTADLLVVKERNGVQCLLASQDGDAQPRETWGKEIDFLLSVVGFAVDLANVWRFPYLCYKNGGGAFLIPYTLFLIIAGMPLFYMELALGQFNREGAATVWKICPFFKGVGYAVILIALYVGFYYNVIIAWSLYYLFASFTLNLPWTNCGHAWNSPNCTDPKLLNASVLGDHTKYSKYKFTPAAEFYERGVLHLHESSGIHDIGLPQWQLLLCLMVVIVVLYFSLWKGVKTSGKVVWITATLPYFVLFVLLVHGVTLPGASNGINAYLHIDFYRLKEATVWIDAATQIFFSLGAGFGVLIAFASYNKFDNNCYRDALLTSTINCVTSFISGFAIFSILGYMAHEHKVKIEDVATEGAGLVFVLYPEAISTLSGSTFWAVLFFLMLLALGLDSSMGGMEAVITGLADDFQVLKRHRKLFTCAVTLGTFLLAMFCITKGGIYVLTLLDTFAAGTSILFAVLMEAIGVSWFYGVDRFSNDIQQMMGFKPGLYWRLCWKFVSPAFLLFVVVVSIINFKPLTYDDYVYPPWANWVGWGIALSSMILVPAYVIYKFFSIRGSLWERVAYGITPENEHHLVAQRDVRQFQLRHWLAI
Compound,Ki (dopamine transporter [1]),higher activity / selectivity at the DAT over the 5-HTT (dopamine transporter [1]),Ki (dopamine transporter [2]),Ki [3],Ki (serotonin transporter),5-HT/DA (ratio of uptake Ki) (serotonin transporter),binding potency relative to (-)-40 (dopamine transporter [2]; in words),time to full antidepressant effect [4],selectivity for serotonin (dual serotonin and norepinephrine re-uptake inhibitor) [5],"more active at the 5-HTT (5-HTT/NET selectivity) (serotonin transporter; reuptake inhibition, 5-HTT over NET)"
O=C1CN2CCC(c3ccc(Cl)cc3)C1C2 (stereo not drawn) [Compound (-)-5],9050 ± 460 nM,1.3 fold,9740 ± 160 nM,4650 ± 440 nM,11900 ± 610 nM,1.3,–,–,–,–
"(1R, 2S, 4R, 7S)-(-)-10-methylene-2-(p-tolyl)-8-azatricyclo [5.2.0.0^4.8 ] decane [Compound (-)-40]",60.3 ± 0.4 nM,–,54.3 ± 10.2 nM,5.24 ± 0.07 nM,1.76 nM,0.029,–,–,–,–
O=C1CN2CCC(c3ccc(Cl)cc3)C1C2 (stereo not drawn) [Compound (+)-4],27600 ± 1000 nM,–,18500 ± 2700 nM,38300 ± 4610 nM,4630 ± 760 nM,0.16,–,–,–,–
O=C1CN2CCC(c3ccc(Cl)cc3)C1C2 (stereo not drawn) [Compound (+)-5],10500 ± 450 nM,2.4 fold,6770 ± 500 nM,4530 ± 410 nM,25100 ± 3600 nM,2.4,–,–,–,–
C=C1CN2C3CCC2C1C(c1ccc(C)cc1)C3 (racemic) [Compound (±)-40],60.3 nM,–,61.7 ± 8.5 nM,2.69 ± 0.12 nM,2.32 ± 0.23 nM,0.038,only slightly decreased from that of the (-)-40,–,–,–
COc1ccc(C(CN(C)C)C2(O)CCCCC2)cc1 (stereo not drawn) [venlafaxine],–,–,–,–,–,–,–,4 to 7 days,five-fold selectivity for serotonin,–
O=C1CN2CCC(c3ccc(Cl)cc3)C1C2 (stereo not drawn) [Compound (-)-4],16500 ± 970 nM,–,10500 ± 930 nM,70900 ± 18000 nM,1890 ± 440 nM,0.11,–,–,–,38 fold
"(1SR, 2SR, 3RS, 5RS, 7SR)-2-butyl-methylphenyl)-10-azatricyclo [5.3.0.0^5,10 ]decane [Compound 50a]",149 ± 2.13 nM,–,149 ± 5.75 nM,51.7 ± 12 nM,810 ± 79.5 nM,5.4,–,–,–,–
Cc1ccc(C2CC3CCC4C2c2ccccc2CN34)cc1 (racemic) [Compound 45],23.9 ± 1.33 nM,–,6.86 ± 0.43 nM,1.06 ± 0.03 nM,1.77 nM,0.074,–,–,–,–
"CCCC[C@@H]1CC[C@@H]2C3CN[C@H]2C[C@@]31c1ccc(C)cc1 (racemic) [Compound 42a, (1SR, 3SR, 4RS, 5SR, 7RS)-4-butyl-3-(4-methylphenyl)-10-azatricyclo[5.3.0.0^3,8]decane]",2.23 ± 0.12 nM,–,4 ± 0.07 nM,2.99 ± 0.17 nM,14 ± 0.58 nM,6.3,–,–,–,–
